tested on: rat glomerular nephritis; assay: Action on rat glomerular nephritis (nephrotoxic serum-induced nephritis; urinary protein excretion); format: in vivo; details: male WKY rats, NTS-induced nephritis; 30 mg/kg/10 ml orally twice a day for 8 days; 24 h urine collected after 7 days
Procedure: (Action on rat glomerular nephritis)
Rabbits were immunized several times with a renal glomerular basement membrane fraction obtained from WKY strain rats and an adjuvant. Thereafter, blood was collected to obtain a nephrotoxic serum (NTS). This NTS was diluted by 50 times with physiological saline, and the diluted NTS was once administered intravenously to male WKY rats of 8 weeks old in a dose of 2.5 ml per 1 kg of body weight to induce nephritis. In normal group of rats, the same volume of physiological saline was intravenously administered.
In the experiment, one group consisted of 6 rats, and each compound to be tested was suspended in water with small amount of Tween 80 (trade name, produced by Nacalai Tesque Co.), and was orally administered to the test group of rats at a dose of 30 mg/kg/10 ml twice a day for 8 days. In normal group and control group of rats, the same volume of water was orally administered instead of the test compound. After 7 days, the rats were placed in metabolic cages and urine was collected for 24 hours. Concentrations of protein in urine were measured by the sulfosalicylic acid method to determine amounts of protein excreted in the urine (mg/day). The inhibition rate of excretion of protein were calculated by the following equation. [formula]

Point of comparison: `C=CS(=O)(=O)NCCCC1Cc2ccc(-c3ccc(=O)[nH]n3)cc2C1` (stereo not drawn) [Example 19], “Inhibition rate (of excretion of protein in urine)” value 91.8%. Against it:
- CCS(=O)(=O)NCCC1Cc2ccc(-c3ccc(=O)[nH]n3)cc2C1 (stereo not drawn) [Example 6] — lower, 65.1%
- CCCS(=O)(=O)NCCC1Cc2ccc(-c3ccc(=O)[nH]n3)cc2C1 (stereo not drawn) [Example 7] — lower, 77.2%
- C=CS(=O)(=O)NCC1Cc2ccc(-c3ccc(=O)[nH]n3)cc2C1 (stereo not drawn) [Example 4] — lower, 61.5%
- C=CS(=O)(=O)NCCCCC1Cc2ccc(-c3ccc(=O)[nH]n3)cc2C1 (stereo not drawn) [Example 12] — lower, 67.5%
- C=CS(=O)(=O)NCCC1Cc2ccc(-c3ccc(=O)[nH]n3)cc2C1 (stereo not drawn) [Example 8] — lower, 71.6%

Source: US5686452A, “Indane derivative and processes for preparing the same” (Tanabe Seiyaku Co., Ltd., priority 1994, dated 1997)
